The source of these data is patent US12529022B2, “Human organ-on-chip models for predictive screening” (The Trustees of Columbia University in the City of New York, priority 2018, dated 2026).

Series [1] has as its system non-metastatic (RD-ES cell line derived) Ewing sarcoma OOC. Kind of series: Non-metastatic Ewing sarcoma OOC, luciferase luminescence (cancer cell number and viability). The series is classed as cell-based, human. The conditions noted are these: 12 μM. How it is done:
Drug treatment experiments recapitulating the patient treatment regimens and the patient plasma concentration of 12 μM of linsitinib were then carried out on the nonmetastatic and metastatic TE-ES and OS models. FIGS. 42 and 43 are graphs illustrating non-metastatic (RD-ES cell line derived, FIG. 42) and metastatic (SK-N-MC cell line derived, FIG. 43) Ewing sarcoma OOCs were exposed to linsitinib (12 μM) according to the drug treatment regimen. Luminescence as a function of cancer cell number and viability was measured (mean±s.e.m., n=6 for day 3, and n=3 for day 7 and 21, biologically independent per group). Significance was determined by unpaired two-tailed Student's t test of treatment group at specific day with respective control; *P<0.05; **P<0.01; ***P<0.001. Tissue engineered bone tumor models: Using an established protocol, expanded MSCs were seeded into the bone matrix scaffolds (4 mm×4 mm×1 mm) at a concentration of 10^6 cells per scaffold, using 40 μL of medium. The cells were allowed to attach for 2 hours, and then supplemented with additional mesenchymal stem cell medium overnight. The following day, osteogenic differentiation of the seeded cells was initiated by addition of low glucose DMEM supplemented with 1 μM dexamethasone (Sigma-Aldrich), 10 mM β-glycerophosphate (SigmaAldrich), and 50 μM L-ascorbic acid-2-phosphate (Sigma Aldrich). Each scaffold was incubated in 4 mL of osteogenic media, with media changes three times a week, for 3 weeks, allowing for the MSCs to differentiate into functional, maturing osteoblasts. Two weeks following the initiation of osteogenic differentiation, aggregates of tumor cells were prepared as described previously. Briefly, 0.3×10^6 cells were used to form ES aggregates and 0.5×10^6 cells were used to form OS aggregates. After 1 week of culture, the primary bone tumor aggregates were infused into the differentiated osteoblastseeded bone scaffolds (3 aggregates per scaffold, placed apart of each other). Tumor models were established for each of the two ES cell types (non-metastatic RD-ES, metastatic SK-NMC) and three OS cell types (non-metastatic U2-OS and Saos2, metastatic KHOS/NP). TE-RD-ES were cultured in the RPMI medium, TE-U-2 OS in DMEM, TE-Saos2 in McCoy's 5A, and TESK-N-MC and TE-KHOS/NP both in EMEM. Scaffolds without aggregates were used as healthy bone controls for each tumor model (termed TE-bone) and were cultured in the respective cancer cell line medium. […] Cell viability: Cancer cell viability was measured for GFP-Luciferase labelled cancer cells using ONE-Glo luciferase substrate that was prepared according to manufacturer's protocol (Promega). […] Cardiac cell viability was assessed through the Pierce LDH Cytotoxicity Assay Kit (Thermo Fisher Scientific). […]

Series [2] relates to metastatic (SK-N-MC cell line derived) Ewing sarcoma OOC. Kind of series: Metastatic Ewing sarcoma OOC, luciferase luminescence (cancer cell number and viability). The series is classed as cell-based, human. Conditions: 12 μM. On the procedure: Drug treatment experiments recapitulating the patient treatment regimens and the patient plasma concentration of 12 μM of linsitinib were then carried out on the nonmetastatic and metastatic TE-ES and OS models. FIGS. 42 and 43 are graphs illustrating non-metastatic (RD-ES cell line derived, FIG. 42) and metastatic (SK-N-MC cell line derived, FIG. 43) Ewing sarcoma OOCs were exposed to linsitinib (12 μM) according to the drug treatment regimen. Luminescence as a function of cancer cell number and viability was measured (mean±s.e.m., n=6 for day 3, and n=3 for day 7 and 21, biologically independent per group). Significance was determined by unpaired two-tailed Student's t test of treatment group at specific day with respective control; *P<0.05; **P<0.01; ***P<0.001. Tissue engineered bone tumor models: Using an established protocol, expanded MSCs were seeded into the bone matrix scaffolds (4 mm×4 mm×1 mm) at a concentration of 10^6 cells per scaffold, using 40 μL of medium. The cells were allowed to attach for 2 hours, and then supplemented with additional mesenchymal stem cell medium overnight. The following day, osteogenic differentiation of the seeded cells was initiated by addition of low glucose DMEM supplemented with 1 μM dexamethasone (Sigma-Aldrich), 10 mM β-glycerophosphate (SigmaAldrich), and 50 μM L-ascorbic acid-2-phosphate (Sigma Aldrich). Each scaffold was incubated in 4 mL of osteogenic media, with media changes three times a week, for 3 weeks, allowing for the MSCs to differentiate into functional, maturing osteoblasts. Two weeks following the initiation of osteogenic differentiation, aggregates of tumor cells were prepared as described previously. Briefly, 0.3×10^6 cells were used to form ES aggregates and 0.5×10^6 cells were used to form OS aggregates. After 1 week of culture, the primary bone tumor aggregates were infused into the differentiated osteoblastseeded bone scaffolds (3 aggregates per scaffold, placed apart of each other). Tumor models were established for each of the two ES cell types (non-metastatic RD-ES, metastatic SK-NMC) and three OS cell types (non-metastatic U2-OS and Saos2, metastatic KHOS/NP). TE-RD-ES were cultured in the RPMI medium, TE-U-2 OS in DMEM, TE-Saos2 in McCoy's 5A, and TESK-N-MC and TE-KHOS/NP both in EMEM. Scaffolds without aggregates were used as healthy bone controls for each tumor model (termed TE-bone) and were cultured in the respective cancer cell line medium. All culture media were supplemented with 10% FBS and 1% penicillin/streptomycin. […] Tissues were randomly assigned to experimental groups. Medium was changed every day. Cardiac tissues were exposed to linsitinib for 3 days. The bone tumor models were exposed to a physiological treatment regimen consisted of cycles that involved 3 consecutive days of treatment followed by 4 days without drug, unless otherwise stated. Cell viability: Cancer cell viability was measured for GFP-Luciferase labelled cancer cells using ONE-Glo luciferase substrate that was prepared according to manufacturer's protocol (Promega). Samples were collected following 3, 7, and 21-day cycles of Linsitinib treatment. Cardiac cell viability was assessed through the Pierce LDH Cytotoxicity Assay Kit (Thermo Fisher Scientific). Samples were collected at 0 h, 1 h and 72 h.

The test system of series [3] is human cardiac OOC. Kind of series: Cardiac OOC extracellular LDH cytotoxicity assay. The series is classed as cell-based. The conditions noted are these: after linsitinib exposure. How it is done: Tissues were randomly assigned to experimental groups. Medium was changed every day. Cardiac tissues were exposed to linsitinib for 3 days.
Cell viability: Cancer cell viability was measured for GFP-Luciferase labelled cancer cells using ONE-Glo luciferase substrate that was prepared according to manufacturer's protocol (Promega). Samples were collected following 3, 7, and 21-day cycles of Linsitinib treatment. Cardiac cell viability was assessed through the Pierce LDH Cytotoxicity Assay Kit (Thermo Fisher Scientific). Samples were collected at 0 h, 1 h and 72 h.

For series [4] the following is noted: patients with other types of cancers; cited from earlier work.
Series [5] relates to TE-ES and TE-OS models. As to the kind of experiment: Linsitinib titration on TE-ES and TE-OS bone tumor models, luminescence as cancer cell viability. The series is classed as cell-based, human. The conditions noted are these: 21-day treatment cycle. On the procedure: The cells were allowed to attach for 2 hours, and then supplemented with additional mesenchymal stem cell medium overnight. The following day, osteogenic differentiation of the seeded cells was initiated by addition of low glucose DMEM supplemented with 1 μM dexamethasone (Sigma-Aldrich), 10 mM β-glycerophosphate (SigmaAldrich), and 50 μM L-ascorbic acid-2-phosphate (Sigma Aldrich). Each scaffold was incubated in 4 mL of osteogenic media, with media changes three times a week, for 3 weeks, allowing for the MSCs to differentiate into functional, maturing osteoblasts. Two weeks following the initiation of osteogenic differentiation, aggregates of tumor cells were prepared as described previously. Briefly, 0.3×10^6 cells were used to form ES aggregates and 0.5×10^6 cells were used to form OS aggregates. After 1 week of culture, the primary bone tumor aggregates were infused into the differentiated osteoblastseeded bone scaffolds (3 aggregates per scaffold, placed apart of each other). […] Cell viability: Cancer cell viability was measured for GFP-Luciferase labelled cancer cells using ONE-Glo luciferase substrate that was prepared according to manufacturer's protocol (Promega). […] Cardiac cell viability was assessed through the Pierce LDH Cytotoxicity Assay Kit (Thermo Fisher Scientific). […]

Turning to `C[C@]1(O)C[C@@H](c2nc(-c3ccc4ccc(-c5ccccc5)nc4c3)c3c(N)nccn32)C1` [linsitinib, Linsitinib (OSI-906)], the “course of treated cancer cell population” value in series [1] (21-day treatment cycle) is given as “stopped expanding after the treatment”; in series [2] (21-day treatment cycle), “continued to expand throughout the 21-day treatment cycle”. Further, the “luminescence (cancer cell number and viability) vs control” value in series [1] (day 3) is listed as “significant drug response”; in series [1] (day 7) it was “significant responses”; in series [1] (day 21), “significant responses”; in series [2] (day 3), “significant drug response”; in series [2] (day 7), “significant responses”; in series [2] (day 21), “significant responses”. In series [2] (after 3 days), the “drug efficacy after day 3” value is on record as “decrease in drug efficacy”. For the same molecule, the “extracellular lactate dehydrogenase (LDH)” value in series [3] is “increased levels”. Also, in series [4], the “cardiotoxicity in clinical trials” value is “proarrhythmic events, like tachycardia and atrial fibrillation”. Further, in series [5] (12 μM, ES and OS models), the “luminescence signal as indicator of cancer cell viability” value is listed as “significant responses”. The “luminescence signal as indicator of cancer cell viability, titration” value in series [5] (linsitinib titration) is on record as “dose response”.
